# Reference: patent US10208033B2, “β-carboline, dihydro-β-carboline and tetrahydro-β-carboline alkaloid derivatives and preparation methods same and use in aspects of preventing and treating plant viruses, fungicides and insecticides” (NANKAI UNIVERSITY, priority 2013, dated 2019)
# Where two headings read alike, the source gives them in different places.
# Experiments:
# [1] = tested on: tobacco mosaic virus (TMV); assay: Anti-TMV in vitro effect (half-leaf soaking); assay type: cell-based, tobacco mosaic virus (host Nicotiana tabacum L.cv.Xanthi NN)
# [2] = tested on: tobacco mosaic virus (TMV); assay: Anti-TMV in vivo inactivation; parameters: species or system tobacco mosaic virus (host Nicotiana tabacum L.cv.Xanthi NN)
# [3] = tested on: tobacco mosaic virus (TMV); assay: Anti-TMV in vivo therapeutic effect; parameters: species or system tobacco mosaic virus (host Nicotiana tabacum L.cv.Xanthi NN)
# [4] = tested on: tobacco mosaic virus (TMV); assay: Anti-TMV in vivo protective effect; parameters: species or system tobacco mosaic virus (host Nicotiana tabacum L.cv.Xanthi NN)
# [5] = tested on: cucumber fusarium wilt; assay: Fungicidal (bactericidal) activity in vitro, PDA colony diameter; assay type: cell-based; conditions: 50 mg/kg
# [6] = tested on: Cercospora arachidicola; assay: as above; assay type: cell-based; conditions: 50 mg/kg
# [7] = tested on: Macrophoma kawatsukai; assay: as above; assay type: cell-based; conditions: 50 mg/kg
# [8] = tested on: Alternaria solani; assay: as above; assay type: cell-based; conditions: 50 mg/kg
# [9] = tested on: Fusarium graminearumt; assay: microbe, parasite or virus in culture; assay type: cell-based; conditions: 50 mg/kg
# [10] = tested on: potato late blight; assay: microbe, parasite or virus in culture; assay type: cell-based
# [11] = tested on: Sclerotinia scleotiorum; assay: Fungicidal (bactericidal) activity in vitro, PDA colony diameter; assay type: cell-based; conditions: 50 mg/kg
# [12] = tested on: Botrytis cinerea; assay: as above; assay type: cell-based; conditions: 50 mg/kg
# [13] = tested on: Rhizoctonia solani; assay: as above; assay type: cell-based; conditions: 50 mg/kg
# [14] = tested on: Phytophthora capsici; assay: as above; assay type: cell-based; conditions: 50 mg/kg
# [15] = tested on: Fusarium fujikuroi; assay: as above; assay type: cell-based; conditions: 50 mg/kg
# [16] = tested on: Rhizoctonia cereali; assay: as above; assay type: cell-based; conditions: 50 mg/kg
# [17] = tested on: Bipolaria maydis; assay: organism not typed; assay type: cell-based; conditions: 50 mg/kg
# [18] = tested on: Colletotrichum orbiculare; assay: Fungicidal (bactericidal) activity in vitro, PDA colony diameter; assay type: cell-based; conditions: 50 mg/kg
# [19] = tested on: armyworms; assay type: in vivo; conditions: concentration 600 mg/kg
# [20] = tested on: cotton bollworms; assay: whole plant or invertebrate
# Protocol: Experimental method of cotton bollworms: feed and drug mixing method: measure 3 mL of prepared solution and add it to about 27 g of newly prepared feed, thereby obtaining needed concentration through dilution by 10 times.
# [21] = tested on: mosquito larvae; assay: whole plant or invertebrate
# Procedure, shortened: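 Compound dissolved in acetone (or other solvent) to a 1000 ppm stock and diluted in water to 5 ppm. Ten Culex pipiens pallens larvae at the start of the fourth instar, laboratory-reared, added per beaker; solvent-only aqueous control.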
# [22] = tested on: corn borers
Compound,Relative inhibition rate (%) In vitro activity ([1]; treatment dose 100 μg/mL) [%],Relative inhibition rate (%) In vitro activity ([1]; treatment dose 500 μg/mL) [%],Relative inhibition rate (%) In vivo inactivation ([2]; treatment dose 100 μg/mL) [%],Relative inhibition rate (%) In vivo inactivation ([2]; treatment dose 500 μg/mL) [%],Relative inhibition rate (%) In vivo therapy ([3]; treatment dose 100 μg/mL) [%],Relative inhibition rate (%) In vivo therapy ([3]; treatment dose 500 μg/mL) [%],Relative inhibition rate (%) In vivo protection ([4]; treatment dose 100 μg/mL) [%],Relative inhibition rate (%) In vivo protection ([4]; treatment dose 500 μg/mL) [%],Bactericidal activity (%) Cucumber fusarium wilt [5] [%],Bactericidal activity (%) Cercospora arachidicola [6] [%],Bactericidal activity (%) Macrophoma kawatsukai [7] [%],Bactericidal activity (%) Alternaria solani [8] [%],Bactericidal activity (%) Fusarium graminearumt [9] [%],Bactericidal activity (%) potato late blight [10] [%],Bactericidal activity (%) Sclerotinia scleotiorum [11] [%],Bactericidal activity (%) Botrytis cinerea [12] [%],Bactericidal activity (%) Rhizoctonia solani [13] [%],Bactericidal activity (%) Phytophthora capsici [14] [%],Bactericidal activity (%) Fusarium fujikuroi [15] [%],Bactericidal activity (%) Rhizoctonia cereali [16] [%],also measured
"COc1ccccc1C=NNC(=O)[C@@H]1Cc2c([nH]c3ccccc23)[C@H](C)N1 [Ic-10, (1S, 3S)—N′-(2-methoxybenzylidene)-1-methyl-2,3,4,9-tetrahydropyridino [3,4-b] indol-3-formylhydrazine]",0,38.5,0,43.2,10.9,36.4,0,34.8,26.9,23.5,88.9,45.0,72.4,44.0,64.7,77.3,32.9,63.2,21.4,78.4,"Bactericidal activity (%) Bipolaria maydis [17]: 56.0%; Bactericidal activity (%) Colletotrichum orbiculare [18]: 40.7%; Armyworm Mortality (%) [19]: 25%; Cotton bollworm Mortality (%) ([20]; concentration 600 mg/kg): 30%; Mosquito larvae Mortality (%) ([21]; concentration 10 mg/kg, 24 h): 50%; Corn borer Mortality (%) ([22]; concentration 600 mg/kg): 30%"
C[C@@H]1N[C@H](C(=O)NN=Cc2ccc3c(c2)OCCO3)Cc2c1[nH]c1ccccc21 [Ic-13],19.8,46.5,15.2,43.6,18.6,48.1,10.3,46,22.7,45.5,66.7,52.4,30.8,30.4,21.2,66.7,44.4,84.8,47.1,89.2,"Bactericidal activity (%) Bipolaria maydis [17]: 52.0%; Bactericidal activity (%) Colletotrichum orbiculare [18]: 72.0%; Armyworm Mortality (%) [19]: 30%; Cotton bollworm Mortality (%) ([20]; concentration 600 mg/kg): 15%; Mosquito larvae Mortality (%) ([21]; concentration 10 mg/kg, 24 h): 60%; Corn borer Mortality (%) ([22]; concentration 600 mg/kg): 35%"
"C[C@@H]1N[C@H](C(=O)NN=Cc2ccc3cc(O)ccc3c2)Cc2c1[nH]c1ccccc21 [Ic-14, (1S, 3S)—N′-(6-hydroxynaphthalene-2-methylene)-1-methyl-2,3,4,9-tetrahydropyridino [3,4-b] indol-3-formylhydrazine]",0,40.9,16.9,45.6,8.2,43.9,0,47.8,19.2,47.1,77.8,30.0,10.3,44.0,88.2,72.7,28.9,84.2,28.6,86.3,"Bactericidal activity (%) Bipolaria maydis [17]: 56.0%; Bactericidal activity (%) Colletotrichum orbiculare [18]: 48.1%; Armyworm Mortality (%) [19]: 40%; Cotton bollworm Mortality (%) ([20]; concentration 600 mg/kg): 35%; Mosquito larvae Mortality (%) ([21]; concentration 10 mg/kg, 24 h): 75%; Corn borer Mortality (%) ([22]; concentration 600 mg/kg): 45%"
"C[C@@H]1N[C@H](C(=O)NN=Cc2ccncc2)Cc2c1[nH]c1ccccc21 [Ic-15, (1S, 3S)—N′-(pyridine-4-methylene)-1-methyl-2,3,4,9-tetrahydropyridino [3,4-b] indol-3-formylhydrazine]",0,36.6,8.8,43.4,12.9,39.6,0,37.5,23.1,35.3,52.8,15.0,27.6,24.0,64.7,36.4,23.7,28.9,21.4,66.7,Bactericidal activity (%) Bipolaria maydis [17]: 28.0%; Bactericidal activity (%) Colletotrichum orbiculare [18]: 29.6%; Armyworm Mortality (%) [19]: 15%; Cotton bollworm Mortality (%) ([20]; in vivo): 15%; Mosquito larvae Mortality (%) ([21]; in vivo): 30%; Corn borer Mortality (%) ([22]; in vivo): 20%
"C[C@@H]1N[C@H](C(=O)NN=Cc2cccnc2)Cc2c1[nH]c1ccccc21 [Ic-16, (1S, 3S)—N′-(pyridine-3-methylene)-1-methyl-2,3,4,9-tetrahydropyridino [3,4-b] indol-3-formylhydrazine]",0,33.3,11.2,41,5.7,36.9,0,33.6,38.5,41.2,83.3,15.0,62.1,52.0,35.3,54.5,39.5,26.3,50.0,80.4,Bactericidal activity (%) Bipolaria maydis [17]: 32.0%; Bactericidal activity (%) Colletotrichum orbiculare [18]: 40.7%; Armyworm Mortality (%) [19]: 20%; Cotton bollworm Mortality (%) ([20]; in vivo): 10%; Mosquito larvae Mortality (%) ([21]; in vivo): 40%; Corn borer Mortality (%) ([22]; in vivo): 30%
